Data: patent US4628043A, “Hypothalamic GRF agonists” (The Salk Institute for Biological Studies, priority 1985, dated 1986)
Square brackets hold non-standard residues; d marks the D form. Ends that are not written are not given here. Peptide text beside a SMILES is read from it. Nle = CCCC[C@H](N)C(=O)O

Legend:
[1] = tested on: cells of rat pituitary glands; assay: in vitro GH release assay in cultured rat pituitary cells, hpGRF(1-40)-OH as standard; format: cell-based; settings: for Comparison %: GH release at equimolar concentrations relative to hpGRF(1-40)-OH standard (100%), incubation 3 to 4 hours, ir GH by radioimmunoassay
Procedure: To determine the effectiveness of the various synthetic peptides to promote the release of growth hormone, in vitro assays are carried out using synthetic hpGRF(1-40)--OH as a standard in side-by-side comparison with equimolar concentrations of the various other analogs and fragments synthesized. Cultures are used which include cells of rat pituitary glands removed some three to five days previously. Cultures which are considered optimal for the secretion of growth hormone are used for the comparative testing, in the general manner described in Vale et al. Endocrinology, 91, 562-572 (1972) and as more particularly described in Vale et al. Endocrinology, (1983), in press. Incubation with the substance to be tested is carried out for 3 to 4 hours, and aliquots of the culture medium are removed and processed to measure their contents in immunoreactive GH(ir GH) by a well-characterized radioimmunoassay.

[2] = tested on: freely running normal male rats; assay: in vivo GH secretion after injection through an indwelling catheter, FLA-63 pretreated rats; design: species or system rat; settings: blood GH by radioimmunoassay prior to and 5 and 20 minutes after injection; result in words
Procedure: In addition to the in vitro tests for secretion of growth hormone, in vivo experiments are also run by injecting the synthetic peptide through an indwelling catheter into freely running normal male rats. Animals are pretreated with FLA-63, a dopamine hydroxylase inhibitor that suppresses spontaneous GH secretion without affecting the response to exogenous GRF. Blood samples are taken through the same catheter immediately prior to and 5 and 20 minutes after injections; GH levels in blood are measured by radioimmunoassay. […] Dosages between about 40 nanograms and about 25 micrograms per Kg. of body weight are considered to be effective in causing secretion.

CCCC[C@H](NC(=O)[C@@H](NC(=O)[C@H](CC(=O)O)NC(=O)[C@H](CCC(N)=O)NC(=O)[C@H](CC(C)C)NC(=O)[C@H](CC(C)C)NC(=O)[C@H](CCCCN)NC(=O)[C@H](CCCNC(=N)N)NC(=O)[C@H](C)NC(=O)[C@H](CO)NC(=O)[C@H](CC(C)C)NC(=O)[C@H](CCC(N)=O)NC(=O)CNC(=O)[C@H](CC(C)C)NC(=O)[C@@H](NC(=O)[C@H](CCCCN)NC(=O)[C@H](CCCNC(=N)N)NC(=O)[C@H](Cc1ccc(O)cc1)NC(=O)[C@H](CO)NC(=O)[C@H](CC(N)=O)NC(=O)[C@@H](NC(=O)[C@H](Cc1ccccc1)NC(=O)[C@@H](NC(=O)[C@H](C)NC(=O)[C@H](CC(=O)O)NC(=O)[C@H](C)NC(=O)[C@@H](N)Cc1ccc(O)cc1)[C@@H](C)CC)[C@@H](C)O)C(C)C)[C@@H](C)CC)C(=O)N[C@@H](CC(N)=O)C(=O)N[C@@H](CCCNC(=N)N)C(N)=O [[Nle^27,Asn^28]--hGRF(1-29)-NH2, H--Tyr--Ala--Asp--Ala--Ile--Phe--Thr--Asn--Ser--Tyr--Arg--Lys--Val--Leu--Gly--Gln--Leu--Ser--Ala--Arg--Lys--Leu--Leu--Gln--Asp--Ile--Nle--Asn--Arg--NH2] (H-YADAIFTNSYRKVLGQLSARKLLQDI[Nle]NR-NH2)
Comparison % [1]: 520%

CC[C@H](C)[C@H](NC(=O)[C@H](C)NC(=O)[C@H](CC(=O)O)NC(=O)[C@H](C)NC(=O)[C@@H](N)Cc1c[nH]cn1)C(=O)N[C@@H](Cc1ccccc1)C(=O)N[C@H](C(=O)N[C@@H](CO)C(=O)N[C@@H](CO)C(=O)N[C@@H](Cc1ccc(O)cc1)C(=O)N[C@@H](CCCNC(=N)N)C(=O)N[C@@H](CCCNC(=N)N)C(=O)N[C@H](C(=O)N[C@@H](CC(C)C)C(=O)NCC(=O)N[C@@H](CCC(N)=O)C(=O)N[C@@H](CC(C)C)C(=O)N[C@@H](Cc1ccc(O)cc1)C(=O)N[C@@H](C)C(=O)N[C@@H](CCCNC(=N)N)C(=O)N[C@@H](CCCCN)C(=O)N[C@@H](CC(C)C)C(=O)N[C@@H](CC(C)C)C(=O)N[C@@H](Cc1c[nH]cn1)C(=O)N[C@@H](CCC(=O)O)C(=O)N[C@H](C(=O)N[C@@H](CCSC)C(=O)N[C@@H](CC(N)=O)C(=O)N[C@@H](CCCNC(=N)N)C(=O)N[C@@H](CCC(N)=O)C(=O)N[C@@H](CCC(N)=O)C(=O)NCC(=O)N[C@@H](CCC(=O)O)C(=O)N[C@@H](CCCNC(=N)N)C(=O)N[C@@H](CC(N)=O)C(=O)N[C@@H](CCC(N)=O)C(=O)N[C@@H](CCC(=O)O)C(=O)N[C@@H](CCC(N)=O)C(=O)N[C@@H](CCCNC(=N)N)C(=O)N[C@@H](CO)C(=O)N[C@@H](CCCNC(=N)N)C(=O)N[C@@H](Cc1ccccc1)C(=O)N[C@@H](CC(N)=O)C(=O)O)[C@@H](C)CC)[C@@H](C)CC)[C@@H](C)O [rGRF(1-43)--OH, H--His--Ala--Asp--Ala--Ile--Phe--Thr--Ser--Ser--Tyr--Arg--Arg--Ile--Leu--Gly--Gln--Leu--Tyr--Ala--Arg--Lys--Leu--Leu--His--Glu--Ile--Met--Asn--Arg--Gln--Gln--Gly--Glu--Arg--Asn--Gln--Glu--Gln--Arg--Ser--Arg--Phe--Asn--OH]
maximum effective concentration ([1]; in vitro GH secretion, cultured rat pituitary cells): 1 nM | release of GH from cultured pituitary cells ([1]; result in words): releases GH from cultured pituitary cells | stimulation of the secretion of pituitary GH in vivo [2]: powerful stimulators of the secretion of pituitary GH

npGRF(1-40)-OH: synthetic hpGRF(1-40)--OH used as a standard in the in vitro assays (YADAIFTNSYRKVLGQLSARKLLQDIMSRQQGESNQERGA-OH; UniProt P01286 32-71, looked up, fragment) [reference compound]
Comparison % [1]: 100%
